These compounds were tested on Key Grass and Sedge Weeds as well as Grass Crops (assay: Post-emergent Test II herbicidal activity (Table 6)). Settings: Triticum aestivum, post-emergence, 336 h, TRZSS (wheat), application rate 70 g ai/ha, read-out: Visual Growth Reduction (%) 14 Days After Application, TRZSS.
Type: in vivo
Outline: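 Greenhouse post-emergent assay: seedlings (first/second true leaf) in Metro-Mix 360 were sprayed at 187 L/ha at a top rate plus twofold dilutions down to 1/16×; solvent-blank controls were included. Percent visual injury was read at 14 d.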

**Q.** With Cc1c(-c2ccc(OC(F)F)cc2)nc(C(=O)O)c(Cl)c1N [Compound 94, 4-Amino-3-chloro-6-(4-(difluoromethoxy)phenyl)-5-methylpicolinic acid] as the compound, how does the pest or weed control at 70 g/ha read?
**A.** Its pest or weed control at 70 g/ha is 0 to 29%.

Same assay, conditions: Triticum aestivum, post-emergence, 336 h, TRZSS (wheat), application rate 140 g ai/ha, read-out: Visual Growth Reduction (%) 14 Days After Application, TRZSS

**Q.** With Cc1c(-c2ccc(OC(F)F)cc2)nc(C(=O)O)c(Cl)c1N [Compound 94, 4-Amino-3-chloro-6-(4-(difluoromethoxy)phenyl)-5-methylpicolinic acid] as the compound, how does the pest or weed control at 140 g/ha read?
**A.** Its pest or weed control at 140 g/ha is 0 to 29%.

Same assay, conditions: post-emergence, 336 h, CYPES: yellow nutsedge (Cyperus esculentus), application rate 70 g ai/ha, read-out: Visual Growth Reduction (%) 14 Days After Application, CYPES

**Q.** Which pest or weed control at 70 g/ha does the source give for Cc1c(-c2ccc(OC(F)F)cc2)nc(C(=O)O)c(Cl)c1N [Compound 94, 4-Amino-3-chloro-6-(4-(difluoromethoxy)phenyl)-5-methylpicolinic acid] here?
**A.** Its pest or weed control at 70 g/ha is 0 to 29%.

Same assay, conditions: post-emergence, 336 h, CYPES: yellow nutsedge (Cyperus esculentus), application rate 140 g ai/ha, read-out: Visual Growth Reduction (%) 14 Days After Application, CYPES

**Q.** How did the pest or weed control at 140 g/ha turn out when Cc1c(-c2ccc(OC(F)F)cc2)nc(C(=O)O)c(Cl)c1N [Compound 94, 4-Amino-3-chloro-6-(4-(difluoromethoxy)phenyl)-5-methylpicolinic acid] was run?
**A.** Its pest or weed control at 140 g/ha is 0 to 29%.

Same assay, conditions: post-emergence, 336 h, DIGSA: crabgrass (Digitaria sanguinalis), application rate 70 g ai/ha, read-out: Visual Growth Reduction (%) 14 Days After Application, DIGSA

**Q.** Which pest or weed control at 70 g/ha does the source give for Cc1c(-c2ccc(OC(F)F)cc2)nc(C(=O)O)c(Cl)c1N [Compound 94, 4-Amino-3-chloro-6-(4-(difluoromethoxy)phenyl)-5-methylpicolinic acid] here?
**A.** The pest or weed control at 70 g/ha was 0 to 29%.

Same assay, conditions: post-emergence, 336 h, DIGSA: crabgrass (Digitaria sanguinalis), application rate 140 g ai/ha, read-out: Visual Growth Reduction (%) 14 Days After Application, DIGSA

**Q.** With Cc1c(-c2ccc(OC(F)F)cc2)nc(C(=O)O)c(Cl)c1N [Compound 94, 4-Amino-3-chloro-6-(4-(difluoromethoxy)phenyl)-5-methylpicolinic acid] as the compound, how does the pest or weed control at 140 g/ha read?
**A.** The pest or weed control at 140 g/ha was 0 to 29%.

Same assay, conditions: post-emergence, 336 h, ECHCG: barnyardgrass (Echinochloa crus-galli), application rate 70 g ai/ha, read-out: Visual Growth Reduction (%) 14 Days After Application, ECHCG

**Q.** Cc1c(-c2ccc(OC(F)F)cc2)nc(C(=O)O)c(Cl)c1N [Compound 94, 4-Amino-3-chloro-6-(4-(difluoromethoxy)phenyl)-5-methylpicolinic acid] was tested. Which pest or weed control at 70 g/ha did it give?
**A.** Its pest or weed control at 70 g/ha is 0 to 29%.

Same assay, conditions: post-emergence, 336 h, ECHCG: barnyardgrass (Echinochloa crus-galli), application rate 140 g ai/ha, read-out: Visual Growth Reduction (%) 14 Days After Application, ECHCG

**Q.** For Cc1c(-c2ccc(OC(F)F)cc2)nc(C(=O)O)c(Cl)c1N [Compound 94, 4-Amino-3-chloro-6-(4-(difluoromethoxy)phenyl)-5-methylpicolinic acid], which pest or weed control at 140 g/ha is on record?
**A.** The pest or weed control at 140 g/ha was 0 to 29%.

Same assay, conditions: post-emergence, 336 h, ORYSA: rice (Oryza sativa), application rate 70 g ai/ha, read-out: Visual Growth Reduction (%) 14 Days After Application, ORYSA

**Q.** Cc1c(-c2ccc(OC(F)F)cc2)nc(C(=O)O)c(Cl)c1N [Compound 94, 4-Amino-3-chloro-6-(4-(difluoromethoxy)phenyl)-5-methylpicolinic acid] was tested. Which pest or weed control at 70 g/ha did it give?
**A.** The pest or weed control at 70 g/ha was 0 to 29%.

Same assay, conditions: post-emergence, 336 h, ORYSA: rice (Oryza sativa), application rate 140 g ai/ha, read-out: Visual Growth Reduction (%) 14 Days After Application, ORYSA

**Q.** Which pest or weed control at 140 g/ha does the source give for Cc1c(-c2ccc(OC(F)F)cc2)nc(C(=O)O)c(Cl)c1N [Compound 94, 4-Amino-3-chloro-6-(4-(difluoromethoxy)phenyl)-5-methylpicolinic acid] here?
**A.** The pest or weed control at 140 g/ha was 0 to 29%.

Same assay, conditions: post-emergence, 336 h, SETFA: giant foxtail (Setaria faberi), application rate 70 g ai/ha, read-out: Visual Growth Reduction (%) 14 Days After Application, SETFA

**Q.** For Cc1c(-c2ccc(OC(F)F)cc2)nc(C(=O)O)c(Cl)c1N [Compound 94, 4-Amino-3-chloro-6-(4-(difluoromethoxy)phenyl)-5-methylpicolinic acid], which pest or weed control at 70 g/ha is on record?
**A.** The pest or weed control at 70 g/ha was 0 to 29%.

Same assay, conditions: post-emergence, 336 h, SETFA: giant foxtail (Setaria faberi), application rate 140 g ai/ha, read-out: Visual Growth Reduction (%) 14 Days After Application, SETFA

**Q.** Which pest or weed control at 140 g/ha does the source give for Cc1c(-c2ccc(OC(F)F)cc2)nc(C(=O)O)c(Cl)c1N [Compound 94, 4-Amino-3-chloro-6-(4-(difluoromethoxy)phenyl)-5-methylpicolinic acid] here?
**A.** Its pest or weed control at 140 g/ha is 0 to 29%.

Same assay, conditions: post-emergence, 336 h, SORVU: grain sorghum (Sorghum vulgare), application rate 70 g ai/ha, read-out: Visual Growth Reduction (%) 14 Days After Application, SORVU

**Q.** For Cc1c(-c2ccc(OC(F)F)cc2)nc(C(=O)O)c(Cl)c1N [Compound 94, 4-Amino-3-chloro-6-(4-(difluoromethoxy)phenyl)-5-methylpicolinic acid], which pest or weed control at 70 g/ha is on record?
**A.** The pest or weed control at 70 g/ha was 0 to 29%.

Same assay, conditions: post-emergence, 336 h, SORVU: grain sorghum (Sorghum vulgare), application rate 140 g ai/ha, read-out: Visual Growth Reduction (%) 14 Days After Application, SORVU

**Q.** With Cc1c(-c2ccc(OC(F)F)cc2)nc(C(=O)O)c(Cl)c1N [Compound 94, 4-Amino-3-chloro-6-(4-(difluoromethoxy)phenyl)-5-methylpicolinic acid] as the compound, how does the pest or weed control at 140 g/ha read?
**A.** The pest or weed control at 140 g/ha was 0 to 29%.

Same assay, conditions: post-emergence, 336 h, ZEAMX: maize, corn (Zea mays), application rate 70 g ai/ha, read-out: Visual Growth Reduction (%) 14 Days After Application, ZEAMX

**Q.** Cc1c(-c2ccc(OC(F)F)cc2)nc(C(=O)O)c(Cl)c1N [Compound 94, 4-Amino-3-chloro-6-(4-(difluoromethoxy)phenyl)-5-methylpicolinic acid] was tested. Which pest or weed control at 70 g/ha did it give?
**A.** Its pest or weed control at 70 g/ha is 0 to 29%.

Source: patent US9113629B2, “4-amino-6-(4-substituted-phenyl)-picolinates and 6-amino-2-(4-substituted-phenyl)-pyrimidine-4-carboxylates and their use as herbicides” (DOW AGROSCIENCES LLC, priority 2013, dated 2015)
